Experimental data taken from PubChem BioAssay (NCI).
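Briefly, cells in 96-well plates were exposed to five compound concentrations for 48 h, and endpoints were estimated by linear interpolation. GI50: concentration for 50% inhibition of growth. At the TGI there is no net growth.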

What was measured:
Assay in all cases: growth of human tumour cells (NCI), 48 h
HS 578T breast = tested on: HS 578T breast
KM12 colon = tested on: KM12 colon
MOLT-4 leukemia = tested on: MOLT-4 leukemia
HCT-15 colon = tested on: HCT-15 colon
HL-60(TB) leukemia = tested on: HL-60(TB) leukemia
OVCAR-4 ovarian = tested on: OVCAR-4 ovarian
SF-268 CNS = tested on: SF-268 CNS
DU-145 prostate = tested on: DU-145 prostate
SK-MEL-2 melanoma = tested on: SK-MEL-2 melanoma
SK-MEL-5 melanoma = tested on: SK-MEL-5 melanoma

COc1ccc(-c2ccc(C3CC(c4ccc(O)cc4)=NN3)o2)c([N+](=O)[O-])c1 (configuration not stated)
GI50 (HS 578T breast): 34.7 µM | TGI (HS 578T breast): > 100 µM | GI50 (KM12 colon): 24.5 µM | TGI (KM12 colon): 95.9 µM | GI50 (MOLT-4 leukemia): 5.14 µM | TGI (MOLT-4 leukemia): 29.9 µM | GI50 (HCT-15 colon): 35.4 µM | TGI (HCT-15 colon): > 100 µM | GI50 (HL-60(TB) leukemia): 13 µM | TGI (HL-60(TB) leukemia): 38.8 µM | GI50 (OVCAR-4 ovarian): 50.2 µM | TGI (OVCAR-4 ovarian): 96.6 µM | GI50 (SF-268 CNS): 22.3 µM | TGI (SF-268 CNS): > 100 µM | GI50 (DU-145 prostate): 29.4 µM | TGI (DU-145 prostate): > 100 µM

CC1=CC=NN2C(=O)[C@H](C)C2C1 (some centres not stated)
TGI (SK-MEL-2 melanoma): > 100 µM | TGI (KM12 colon): > 100 µM | TGI (MOLT-4 leukemia): > 100 µM | TGI (HCT-15 colon): > 100 µM | TGI (SK-MEL-5 melanoma): > 100 µM | TGI (HL-60(TB) leukemia): > 100 µM | TGI (OVCAR-4 ovarian): > 100 µM | TGI (SF-268 CNS): > 100 µM

COc1ccc2[nH]cc(CCNC(C)=O)c2c1
TGI (SK-MEL-2 melanoma): > 100 µM | TGI (KM12 colon): > 100 µM | TGI (MOLT-4 leukemia): > 100 µM | TGI (HCT-15 colon): > 100 µM | TGI (SK-MEL-5 melanoma): > 100 µM | TGI (HL-60(TB) leukemia): > 100 µM | TGI (OVCAR-4 ovarian): > 100 µM | TGI (SF-268 CNS): > 100 µM

O=C(Cc1nc2ccccc2s1)C(=O)Nc1ccc(Cl)cc1
TGI (SK-MEL-2 melanoma): > 100 µM | TGI (KM12 colon): > 100 µM | TGI (MOLT-4 leukemia): > 100 µM | TGI (HCT-15 colon): > 100 µM | TGI (SK-MEL-5 melanoma): > 100 µM | TGI (HL-60(TB) leukemia): > 100 µM | TGI (OVCAR-4 ovarian): > 100 µM | TGI (SF-268 CNS): > 100 µM

COc1cccc(N2C(=O)c3c(c4[nH]c5ccccc5c4c4ccc(C(C)(C)C)cc34)C2=O)c1
TGI (SK-MEL-2 melanoma): > 100 µM | TGI (KM12 colon): > 100 µM | TGI (MOLT-4 leukemia): > 100 µM | TGI (HCT-15 colon): > 100 µM | TGI (SK-MEL-5 melanoma): > 100 µM | TGI (OVCAR-4 ovarian): > 100 µM | TGI (SF-268 CNS): > 100 µM

COc1cc(Nc2cnc3cc(C(F)(F)F)ccc3n2)cc(OC)c1OC
TGI (SK-MEL-2 melanoma): > 100 µM | TGI (MOLT-4 leukemia): > 100 µM | TGI (HCT-15 colon): > 100 µM | TGI (HL-60(TB) leukemia): > 100 µM | TGI (SF-268 CNS): > 100 µM

CCN(CC)CCCN(c1cc(OC)cc2nccnc12)S(=O)(=O)c1ccc(C)cc1
TGI (SK-MEL-2 melanoma): > 100 µM | TGI (KM12 colon): > 100 µM | TGI (MOLT-4 leukemia): > 100 µM | TGI (HCT-15 colon): > 100 µM | TGI (SK-MEL-5 melanoma): > 100 µM | TGI (HL-60(TB) leukemia): > 100 µM | TGI (OVCAR-4 ovarian): > 100 µM | TGI (SF-268 CNS): > 100 µM

COc1ccc(OCC(=O)O)c2c1CCC(C(C)C)C2=O (configuration not stated)
TGI (SK-MEL-2 melanoma): > 100 µM | TGI (KM12 colon): > 100 µM | TGI (MOLT-4 leukemia): > 100 µM | TGI (SK-MEL-5 melanoma): > 100 µM | TGI (HL-60(TB) leukemia): > 100 µM | TGI (OVCAR-4 ovarian): > 100 µM

CC(=O)Nc1ccc(/C=C(\NC(=O)c2ccccc2)c2nc3ccc4c(c3[nH]2)C(=O)c2ccccc2C4=O)cc1
TGI (SK-MEL-2 melanoma): > 100 µM | TGI (MOLT-4 leukemia): 49.3 µM | TGI (HCT-15 colon): > 100 µM | TGI (SK-MEL-5 melanoma): > 100 µM | TGI (OVCAR-4 ovarian): > 100 µM | TGI (SF-268 CNS): > 100 µM

COc1nc2c(OC)cccc2c(OC)c1C=O
TGI (SK-MEL-2 melanoma): > 100 µM | TGI (KM12 colon): > 100 µM | TGI (MOLT-4 leukemia): > 100 µM | TGI (HCT-15 colon): > 100 µM | TGI (SK-MEL-5 melanoma): > 100 µM | TGI (HL-60(TB) leukemia): > 100 µM

O=C1NC(=O)C(C(=O)C(=O)Nc2ccc(Br)cc2)C(=O)N1
TGI (MOLT-4 leukemia): > 100 µM | TGI (HCT-15 colon): > 100 µM | TGI (SK-MEL-5 melanoma): > 100 µM | TGI (HL-60(TB) leukemia): > 100 µM | TGI (OVCAR-4 ovarian): > 100 µM | TGI (SF-268 CNS): > 100 µM

CC(C)(C)NNC(=O)/C(=C/c1ccc(Oc2ccc(Cl)c(Cl)c2)cc1)NC(=O)c1ccccc1
TGI (SK-MEL-2 melanoma): > 100 µM | TGI (KM12 colon): > 100 µM | TGI (MOLT-4 leukemia): > 100 µM | TGI (HCT-15 colon): > 100 µM | TGI (SK-MEL-5 melanoma): > 100 µM | TGI (HL-60(TB) leukemia): > 100 µM | TGI (OVCAR-4 ovarian): > 100 µM | TGI (SF-268 CNS): > 100 µM
